In US11933794B2, “Method for determining factor Xa inhibitor dosage” (Good Biomarker Sciences B.V., priority 2017, dated 2024):

Experiments:
[1] = test system: fibrin clot formation in blood plasma; assay: Clot growth rate assay (Thrombodynamics) in plasma samples with defined Factor VIII levels; format: biochemical, human; conditions: for inhibition of clot growth rate: FIG. 1
Text: (§1) The clot growth rate assay monitors over time fibrin clot development in a nonstirred thin layer of platelet-free plasma activated by immobilized tissue factor. For this, the Thrombodynamics Basic Kit can be used as an in vitro diagnostic kit used to perform measurements of spatiotemporal dynamics of fibrin clot formation in blood plasma samples. The kit consists of measurement cuvettes, activating inserts and reagents for samples treatment. The kit is obtainable from HemaCore intended for professional use in the laboratory on the Thrombodynamics Analyzer T-2. See, for further details, Soshitova et al. (Blood Coagul. Fibrinolysis, 2012 September; 23(6):498-507).
Five plasma samples were prepared containing 50%, 75%, 100%, 150%, or 200% Factor VIII, respectively. The samples were prepared using FVIII-deficient plasma, normal plasma from healthy subjects, and FVIII concentrate and Factor VIII levels were measured and confirmed by the one-stage clotting assay. Each of these five plasma samples was subdivided into five subsamples to which apixaban was added to a total concentration of 0 μM, 0.1 μM, 0.2 μM, 0.35 μM, or 0.5 μM in plasma, respectively. The 25 subsamples were subjected to a clot growth assay as described above, and the clot growth rate was measured at 2500 seconds after start of growth.
For each different Factor VIII concentration (i.e., 50%, 75%, 100%, 150% or 200%), five bars are shown representing subsamples to which apixaban was added to a different total concentration, i.e., 0 μM, 0.1 μM, 0.2 μM, 0.35 μM, or […], respectively.

[2] = test system: clot growth in hemophilia plasma (deficient in Factor IX and Factor VIII); assay: Clot growth experiments comparing normal and hemophilia plasma; format: biochemical, human; conditions: hemophilia plasmas; in contrast to what was found in normal plasma
Text: For clot growth, this now appears the key mechanism. In contrast, in text books, activation of Factor VIII is indicated to be a thrombin action.
as §1

[3] = test system: coagulation status; assay: Coagulation status of patients by routine coagulation test (activated partial thromboplastin time, APTT); format: in vivo, human
Description: Four subjects in need of […] are selected, including three patients with thrombosis, and one patient with coronary artery disease.
Coagulation status of patients 1-4 is determined by a routine coagulation test (activated partial thromboplastin time, APTT).

| SMILES | inhibition of clot growth rate ([1]; Factor VIII level below 100%, lowest apixaban concentration (0.1 μM in plasma)) | inhibition of clot growth rate ([1]; Factor VIII levels above 100%, 0.1 μM apixaban) | inhibition of clot growth rate ([1]; Factor VIII levels above 100%, 0.35 μM apixaban in plasma) | inhibition of clot growth [2] | coagulation status (APTT): risk of blood clotting or bleeding events ([3]; Patient 1 (thrombosis), Factor VIII 80% of standard plasma, 5 mg per day) | coagulation status (APTT): risk of blood clotting or bleeding events ([3]; Patient 4 (coronary artery disease), Factor VIII 240% of standard plasma, 5 mg per day) | coagulation status (APTT): risk of blood clotting or bleeding events ([3]; Patient 2 (thrombosis), Factor VIII 95% of standard plasma, 20 mg per day) | effects in the clot growth rate assay compared with apixaban ([1]; FIG. 2) |
| --- | --- | --- | --- | --- | --- | --- | --- | --- |
| COc1ccc(-n2nc(C(N)=O)c3c2C(=O)N(c2ccc(N4CCCCC4=O)cc2)CC3)cc1 [apixaban] | close to maximal inhibition | not be very effective | substantial inhibition | did not inhibit clot growth | no increased risk of blood clotting or bleeding events | increased risk of blood clotting events |  |  |
| CN1CCc2nc(C(=O)N[C@@H]3C[C@@H](C(=O)N(C)C)CC[C@@H]3NC(=O)C(=O)Nc3ccc(Cl)cn3)sc2C1 [edoxaban] |  |  |  |  |  |  | increased risk of bleeding events |  |
| O=C(NC[C@H]1CN(c2ccc(N3CCOCC3=O)cc2)C(=O)O1)c1ccc(Cl)s1 [rivaroxaban] |  |  |  | did not inhibit clot growth |  |  |  | closely mimic the effects of apixaban |
